Each structure is given as a SMILES string. Counter-ions that a name gives are not always drawn.

The target in the assay is adenosine A2A receptor (Homo sapiens, UniProt P29274). The assay is described as follows: adenosine A2A receptor agonist assay (method of Murphree et al). Conditions: method of L. J. Murphree et al, Molecular Pharmacology 61, 455-462 (2002). The format is binding. The source says: The compounds of (A) activate the adenosine […] receptor, i.e. they act as A2A receptor agonists.
Chain of adenosine A2A receptor (P29274 whole entry): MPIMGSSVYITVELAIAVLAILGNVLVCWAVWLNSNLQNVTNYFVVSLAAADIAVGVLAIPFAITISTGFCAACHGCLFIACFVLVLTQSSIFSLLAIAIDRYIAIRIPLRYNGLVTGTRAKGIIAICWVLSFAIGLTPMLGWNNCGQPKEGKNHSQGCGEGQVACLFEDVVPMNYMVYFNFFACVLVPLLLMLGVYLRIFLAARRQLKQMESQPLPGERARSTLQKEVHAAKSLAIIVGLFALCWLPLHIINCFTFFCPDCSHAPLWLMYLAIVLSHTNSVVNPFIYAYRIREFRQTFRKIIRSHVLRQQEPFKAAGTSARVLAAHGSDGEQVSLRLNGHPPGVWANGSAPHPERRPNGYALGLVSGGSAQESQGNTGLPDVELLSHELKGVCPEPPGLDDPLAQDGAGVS

Regarding `COC(=O)N[C@H]1C[C@@H](n2cnc3c(NCC(c4ccccc4)c4ccccc4)nc(N4CC[C@@H](NC(=O)Nc5cccnc5)C4)nc32)[C@H](O)[C@@H]1O` [Example 1, ((1S,2R,3S,4R)-4-{6-(2,2-Diphenyl-ethylamino)-2-[(R)-3-(3-pyridin-3-yl-ureido)-pyrrolidin-1-yl]-purin-9-yl}-2,3-dihydroxy-cyclopentyl)-carbamic acid methyl ester hydrochloride], affinity was put at a Ki of 4 nM.

The values above are taken from patent US20090181934A1, “Organic Compounds” (Novartis AG, priority 2007, published 2009).
